Data published in ChEMBL document CHEMBL3751799, “Fluorinated matrix metalloproteinases inhibitors--Phosphonate based potential probes for positron emission tomography” (Bioorg Med Chem, 2016).
Active and inactive are the calls of the source. The calls are words filed in the database; no cut-off is given here.

Assays:
[1] = target: T1, 72 kDa type IV collagenase (Homo sapiens, UniProt P08253); assay: Inhibition of human MMP2 up to 100 uM using (7-methoxycoumarin-4-yl) acetyl pro-Leu-Gly-Leu-[3-(2,4-dinitrophenyl)-L-2,3-diamino-propionyl]-Ala-Arg-NH2 as substrate preincubated for 30 mins followed by substrate addition by microplate reader analysis
Target sequence in this assay (P08253 110-660 limits assumed): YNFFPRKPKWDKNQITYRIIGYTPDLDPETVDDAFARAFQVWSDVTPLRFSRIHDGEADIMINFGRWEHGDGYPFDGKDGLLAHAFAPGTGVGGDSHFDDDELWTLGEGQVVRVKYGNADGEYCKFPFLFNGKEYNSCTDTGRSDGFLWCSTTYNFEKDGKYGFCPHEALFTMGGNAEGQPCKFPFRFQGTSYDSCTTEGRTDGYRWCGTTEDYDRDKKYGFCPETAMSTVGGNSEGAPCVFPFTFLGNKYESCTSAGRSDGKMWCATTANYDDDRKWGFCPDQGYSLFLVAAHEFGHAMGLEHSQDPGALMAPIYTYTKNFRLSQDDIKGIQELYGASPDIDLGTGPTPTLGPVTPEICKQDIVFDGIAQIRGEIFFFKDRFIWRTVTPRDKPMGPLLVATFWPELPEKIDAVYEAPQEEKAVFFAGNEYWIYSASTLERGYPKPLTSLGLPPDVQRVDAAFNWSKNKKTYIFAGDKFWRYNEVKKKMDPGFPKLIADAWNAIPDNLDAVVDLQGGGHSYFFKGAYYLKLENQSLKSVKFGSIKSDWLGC

[2] = target: T2, Matrix metalloproteinase-9 (Homo sapiens, UniProt P14780); assay: Inhibition of human MMP9 up to 100 uM using (7-methoxycoumarin-4-yl) acetyl pro-Leu-Gly-Leu-[3-(2,4-dinitrophenyl)-L-2,3-diamino-propionyl]-Ala-Arg-NH2 as substrate preincubated for 30 mins followed by substrate addition by microplate reader analysis
[3] = target: T3, Collagenase 3 (Homo sapiens, UniProt P45452); assay: Inhibition of MMP13 (unknown origin) up to 100 uM using (7-methoxycoumarin-4-yl) acetyl pro-Leu-Gly-Leu-[3-(2,4-dinitrophenyl)-L-2,3-diamino-propionyl]-Ala-Arg-NH2 as substrate preincubated for 30 mins followed by substrate addition by microplate reader analysis
[4] = target: T4, Neutrophil collagenase (Homo sapiens, UniProt P22894); assay: Inhibition of MMP8 (unknown origin) up to 100 uM using (7-methoxycoumarin-4-yl) acetyl pro-Leu-Gly-Leu-[3-(2,4-dinitrophenyl)-L-2,3-diamino-propionyl]-Ala-Arg-NH2 as substrate preincubated for 30 mins followed by substrate addition by microplate reader analysis
Target sequence in this assay (P22894 101-467 limits assumed): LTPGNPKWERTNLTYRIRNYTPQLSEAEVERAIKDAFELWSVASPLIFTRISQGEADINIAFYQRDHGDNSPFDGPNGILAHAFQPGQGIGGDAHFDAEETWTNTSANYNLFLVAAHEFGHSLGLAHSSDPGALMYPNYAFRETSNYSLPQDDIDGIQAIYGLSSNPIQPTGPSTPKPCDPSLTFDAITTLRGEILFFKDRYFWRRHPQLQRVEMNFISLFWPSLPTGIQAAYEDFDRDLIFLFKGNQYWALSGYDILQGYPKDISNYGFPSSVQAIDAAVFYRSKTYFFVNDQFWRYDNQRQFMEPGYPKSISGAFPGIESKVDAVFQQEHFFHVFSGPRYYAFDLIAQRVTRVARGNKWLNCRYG

[5] = target: T3, Collagenase 3; assay: Inhibition of MMP13 (unknown origin) using (7-methoxycoumarin-4-yl) acetyl pro-Leu-Gly-Leu-[3-(2,4-dinitrophenyl)-L-2,3-diamino-propionyl]-Ala-Arg-NH2 as substrate preincubated for 30 mins followed by substrate addition by microplate reader analysis
[6] = target: T4, Neutrophil collagenase; assay: Inhibition of MMP8 (unknown origin) using (7-methoxycoumarin-4-yl) acetyl pro-Leu-Gly-Leu-[3-(2,4-dinitrophenyl)-L-2,3-diamino-propionyl]-Ala-Arg-NH2 as substrate preincubated for 30 mins followed by substrate addition by microplate reader analysis
Target sequence in this assay (P22894 whole entry): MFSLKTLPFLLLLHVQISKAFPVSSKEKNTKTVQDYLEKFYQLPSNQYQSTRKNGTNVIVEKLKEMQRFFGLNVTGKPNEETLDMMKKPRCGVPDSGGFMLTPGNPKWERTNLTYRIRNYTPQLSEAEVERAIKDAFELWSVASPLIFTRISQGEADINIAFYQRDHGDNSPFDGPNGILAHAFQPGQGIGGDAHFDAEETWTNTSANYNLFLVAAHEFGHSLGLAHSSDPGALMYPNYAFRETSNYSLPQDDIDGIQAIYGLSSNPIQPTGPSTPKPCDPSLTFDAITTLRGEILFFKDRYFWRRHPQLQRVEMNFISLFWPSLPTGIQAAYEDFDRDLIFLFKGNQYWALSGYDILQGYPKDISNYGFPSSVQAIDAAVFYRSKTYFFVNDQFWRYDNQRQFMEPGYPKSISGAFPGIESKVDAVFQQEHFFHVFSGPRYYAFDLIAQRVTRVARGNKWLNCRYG

[7] = target: T1, 72 kDa type IV collagenase; assay: Inhibition of human MMP2 using (7-methoxycoumarin-4-yl) acetyl pro-Leu-Gly-Leu-[3-(2,4-dinitrophenyl)-L-2,3-diamino-propionyl]-Ala-Arg-NH2 as substrate preincubated for 30 mins followed by substrate addition by microplate reader analysis
Target sequence in this assay (P08253 whole entry): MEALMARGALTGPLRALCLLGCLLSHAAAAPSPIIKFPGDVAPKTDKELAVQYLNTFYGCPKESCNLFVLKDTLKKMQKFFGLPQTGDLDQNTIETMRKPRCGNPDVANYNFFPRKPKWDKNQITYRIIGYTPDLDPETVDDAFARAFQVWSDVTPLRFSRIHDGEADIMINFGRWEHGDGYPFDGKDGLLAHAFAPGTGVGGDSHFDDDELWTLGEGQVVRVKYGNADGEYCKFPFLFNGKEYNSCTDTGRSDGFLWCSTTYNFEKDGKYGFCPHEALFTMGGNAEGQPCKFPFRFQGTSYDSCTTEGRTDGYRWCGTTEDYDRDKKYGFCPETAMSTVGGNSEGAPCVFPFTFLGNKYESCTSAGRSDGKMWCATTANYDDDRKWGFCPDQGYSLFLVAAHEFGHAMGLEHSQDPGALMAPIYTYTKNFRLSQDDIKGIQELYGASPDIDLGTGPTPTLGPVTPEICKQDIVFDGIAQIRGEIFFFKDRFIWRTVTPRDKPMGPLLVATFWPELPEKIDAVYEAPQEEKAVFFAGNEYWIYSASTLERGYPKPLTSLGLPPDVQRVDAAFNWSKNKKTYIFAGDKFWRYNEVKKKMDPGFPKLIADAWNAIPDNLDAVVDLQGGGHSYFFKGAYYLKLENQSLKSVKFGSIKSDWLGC

[8] = target: T2, Matrix metalloproteinase-9; assay: Inhibition of human MMP9 using (7-methoxycoumarin-4-yl) acetyl pro-Leu-Gly-Leu-[3-(2,4-dinitrophenyl)-L-2,3-diamino-propionyl]-Ala-Arg-NH2 as substrate preincubated for 30 mins followed by substrate addition by microplate reader analysis

T2 sequence (P14780 whole entry): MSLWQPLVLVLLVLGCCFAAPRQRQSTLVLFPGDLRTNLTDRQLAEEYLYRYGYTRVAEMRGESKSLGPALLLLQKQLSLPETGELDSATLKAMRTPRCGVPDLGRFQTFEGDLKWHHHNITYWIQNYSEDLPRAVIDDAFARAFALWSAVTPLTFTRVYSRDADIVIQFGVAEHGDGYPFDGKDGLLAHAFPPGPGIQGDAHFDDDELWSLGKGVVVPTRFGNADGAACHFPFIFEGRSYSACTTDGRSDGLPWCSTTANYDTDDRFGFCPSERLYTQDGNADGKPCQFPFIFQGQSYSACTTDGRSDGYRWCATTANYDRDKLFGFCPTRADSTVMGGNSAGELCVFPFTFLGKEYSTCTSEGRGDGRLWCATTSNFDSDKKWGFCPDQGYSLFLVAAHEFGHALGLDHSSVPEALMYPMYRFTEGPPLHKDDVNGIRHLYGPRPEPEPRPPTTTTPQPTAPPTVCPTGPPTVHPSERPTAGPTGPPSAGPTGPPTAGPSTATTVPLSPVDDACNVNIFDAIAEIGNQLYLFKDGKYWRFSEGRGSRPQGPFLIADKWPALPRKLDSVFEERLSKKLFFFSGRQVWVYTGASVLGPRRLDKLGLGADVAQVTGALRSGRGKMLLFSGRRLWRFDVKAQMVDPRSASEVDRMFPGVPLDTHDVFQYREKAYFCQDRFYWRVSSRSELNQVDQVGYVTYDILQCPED

inhibition [1] | inhibition [2] | inhibition [3] | inhibition [4] | IC50 [5] [nM] | IC50 [6] [nM] | IC50 [7] [nM] | IC50 [8] [nM] | Structure (SMILES)
 |  |  |  | 1030 | > 100000 | 628 | 393 | CC(C)C(NS(=O)(=O)c1ccc(-c2ccc(F)nc2)cc1)P(=O)(O)O (stereo not given)
 |  |  |  | 93.8 | 42.2 | 791 | > 100000 | COc1ccc(-c2ccc(S(=O)(=O)N[C@H](CCCCCF)P(=O)(O)O)cc2)cc1
inactive | inactive | inactive | inactive |  |  |  |  | COc1ccc(S(=O)(=O)N(Cc2cccnc2)C(CC(C)C)P(=O)(O)O)cc1 (stereo not given)
 |  |  |  | 2.41 |  | 11.7 | 18.5 | CC(C)C(NS(=O)(=O)c1ccc(-c2ccc(OCCF)cc2)cc1)P(=O)(O)O (stereo not given)

The remaining lines, values behind:

Structure (SMILES) | inhibition [1] | inhibition [2] | inhibition [3] | inhibition [4] | IC50 [5] [nM] | IC50 [6] [nM] | IC50 [7] [nM] | IC50 [8] [nM]
COc1ccc(S(=O)(=O)N(Cc2cccnc2)C(C(C)C)P(=O)(O)O)cc1 (stereo not given) | inactive | inactive | inactive | inactive |  |  |  | 
COc1ccc(-c2ccc(S(=O)(=O)NC(C(C)C)P(=O)(O)O)cc2)cc1 (racemic) |  |  |  |  | 2.17 |  | 9.25 | 8.85
COc1ccc(S(=O)(=O)N(Cc2ccccc2)C(CC(C)C)P(=O)(O)O)cc1 (stereo not given) | inactive | inactive | inactive | inactive |  |  |  | 
COc1ccc(-c2ccc(S(=O)(=O)N[C@@H](CCCCCF)P(=O)(O)O)cc2)cc1 |  |  |  |  | 5.37 |  | 6.5 | 19
COc1ccc(S(=O)(=O)N(Cc2ccccc2)C(C(C)C)P(=O)(O)O)cc1 (stereo not given) | inactive | inactive | inactive | inactive |  |  |  | 
COCc1ccc(-c2ccc(S(=O)(=O)NC(C(C)C)P(=O)(O)O)cc2)s1 (stereo not given) |  |  |  |  | > 100000 | > 100000 | > 100000 | > 100000
CC(C)C(N(Cc1ccccc1)S(=O)(=O)c1ccc(-c2ccc(OCCF)cc2)cc1)P(=O)(O)O (stereo not given) |  |  |  |  | 73.1 | 83.1 | 56.3 | 96.4
Cc1ccc(-c2ccc(S(=O)(=O)NC(C(C)C)P(=O)(O)O)cc2)s1 (stereo not given) |  |  |  |  | > 100000 | > 100000 | > 100000 | > 100000
